{"source": "paper PMC9775433", "about": "(Cancers, 2022)", "assay_type_in_all_cases": "in vivo, human", "conditions_in_all_cases": "individual patient", "key": {"[1]": {"test": "Tumor drug concentration in tumor needle biopsy at day 17 (LC-MS-MS)", "description": "(§1) All tissue samples were immediately snap frozen (within 1 min) in liquid nitrogen and cryopreserved at −80 °C until the day of analysis.\n(§2) Tissue biopsies were weighed accurately before analysis. Tissue homogenate was prepared by using a mechanical homogenizer. The tumor tissue was homogenized with the precellys lysing kit (bertin instruments®) in the Roche MagNA lyzer®. […] Tissue homogenate samples were directly analyzed.\n(§3) Supplementary data S2 – Methods (Details)\n(§4) samples; using a validated liquid chromatography–tandem mass spectrometry (LC-MS-MS).\n(§5) The system consisted of an Acquity H‐Class UPLC system, coupled to a Xevo TQ‐S micro\n(§6) tandem mass spectrometer. […]"}, "[2]": {"test": "Skin drug concentration in skin biopsy at day 17 (LC-MS-MS)", "description": "as §1, §2, §3, §4, §5, §6"}, "[3]": {"test": "Plasma pharmacokinetics of high-dose intermittent sunitinib (LC-MS-MS, NONMEM)", "description": "Study pharmacokinetic assessment in plasma: Ethylenediaminetetraacetic acid (EDTA) blood was collected pretreatment and subsequently at multiple time points in all patients (0, 2, 4, 6, 8, 10, and 24 h post-dose on day 1 for both time schedules and thereafter at days 3, 8, 10, 15, 17, and 22 for the once weekly schedule and at days 3, 15, 17, and 29 for the once every 2 weeks schedule). All samples were centrifuged within 1 h after collection at 2000 g for 10 min (at 4 degrees Celsius (°C)), plasma was separated and stored at −80 °C until the day of analysis.\nSince there is no evidence for the exact relationship between plasma and tumor concentrations, we chose to use the concentration–time data calculated by NONMEM for Cmax, the average concentration over time (Caverage) and the trough concentrations just before the next dose was administered (Ctrough) based on rich PK-data of each individual patient. […] Inter-occasion variability in bioavailability and absorption duration were allowed in the model. The control stream of the final model and the goodness-of-fit plots are supplied in the Supplementary Material (Supplementary Data S3). The developed model was used to derive the individual predictions for the Cmax, Caverage, and Ctrough. SUM concentrations were calculated.\nas §3, §4, §5, §6"}}, "note": "Several values for one entry are separate records, joined by “and”; a condition that tells them apart may be missing. Identical values can stand only once."}
{"smiles": "CCNCCNC(=O)c1c(C)[nH]c(/C=C2\\C(=O)Nc3ccc(F)cc32)c1C", "note": "[N-desethyl sunitinib]", "values": [{"measurement": "Tumor - N-desethyl Sunitinib concentration", "setting": "[1]; sunitinib 300 mg O1W", "value": "589 µg/L and 12025 µg/L and 812 µg/L and 1101 µg/L and 1077 µg/L and 2934 µg/L and 6513 µg/L and 22945 µg/L and 578 µg/L and 10356 µg/L and 342 µg/L and 767 µg/L"}, {"measurement": "Tumor - N-desethyl Sunitinib concentration", "setting": "[1]; sunitinib 400 mg O2W", "value": 400, "unit": "µg/L"}, {"measurement": "Tumor - N-desethyl Sunitinib concentration", "setting": "[1]; sunitinib 700 mg O2W", "value": "13436 µg/L and 2500 µg/L and 19730 µg/L and 2387 µg/L and 4534 µg/L and 1675 µg/L and 17843 µg/L and 555 µg/L"}, {"measurement": "Tumor - N-desethyl Sunitinib concentration", "setting": "[1]; sunitinib 800 mg O2W", "value": 330, "unit": "µg/L"}, {"measurement": "Skin - N-desethyl Sunitinib concentration", "setting": "[2]; sunitinib 300 mg O1W", "value": "1288 µg/L and 1388 µg/L and 267 µg/L and 1355 µg/L and 529 µg/L and 224 µg/L and 648 µg/L and 865 µg/L and 1498 µg/L and 621 µg/L and 1842 µg/L and 2193 µg/L and 488 µg/L"}, {"measurement": "Skin - N-desethyl Sunitinib concentration", "setting": "[2]; sunitinib 300 mg O2W", "value": "124 µg/L and 218 µg/L"}, {"measurement": "Skin - N-desethyl Sunitinib concentration", "setting": "[2]; sunitinib 400 mg O1W", "value": 406, "unit": "µg/L"}, {"measurement": "Skin - N-desethyl Sunitinib concentration", "setting": "[2]; sunitinib 700 mg O2W", "value": "2743 µg/L and 221 µg/L and 168 µg/L and 987 µg/L and 5179 µg/L and 572 µg/L and 425 µg/L and 429 µg/L and 380 µg/L and 326 µg/L and 5652 µg/L and 1279 µg/L and 460 µg/L and 1021 µg/L and 1060 µg/L and 896 µg/L"}, {"measurement": "Skin - N-desethyl Sunitinib concentration", "setting": "[2]; sunitinib 800 mg O2W", "value": 194, "unit": "µg/L"}, {"measurement": "Cmax plasma - N-desethyl Sunitinib concentration", "setting": "[3]; sunitinib 200 mg O1W", "value": "68 ng/mL and 40 ng/mL and 58 ng/mL"}, {"measurement": "Cmax plasma - N-desethyl Sunitinib concentration", "setting": "[3]; sunitinib 300 mg O1W", "value": "29 ng/mL and 34 ng/mL and 28 ng/mL and 22 ng/mL and 51 ng/mL and 15 ng/mL and 94 ng/mL and 32 ng/mL and 21 ng/mL and 31 ng/mL and 33 ng/mL and 23 ng/mL and 27 ng/mL and 43 ng/mL and 210 ng/mL and 63 ng/mL and 14 ng/mL"}, {"measurement": "Cmax plasma - N-desethyl Sunitinib concentration", "setting": "[3]; sunitinib 300 mg O2W", "value": "29 ng/mL and 7.49 ng/mL and 27 ng/mL"}, {"measurement": "Cmax plasma - N-desethyl Sunitinib concentration", "setting": "[3]; sunitinib 400 mg O1W", "value": "15 ng/mL and 26 ng/mL and 9.48 ng/mL and 22 ng/mL and 28 ng/mL and 25 ng/mL and 6.66 ng/mL and 44 ng/mL and 154 ng/mL and 57 ng/mL"}, {"measurement": "Cmax plasma - N-desethyl Sunitinib concentration", "setting": "[3]; sunitinib 400 mg O2W", "value": "33 ng/mL and 31 ng/mL and 28 ng/mL and 34 ng/mL"}, {"measurement": "Cmax plasma - N-desethyl Sunitinib concentration", "setting": "[3]; sunitinib 500 mg O2W", "value": "32 ng/mL and 29 ng/mL and 51 ng/mL"}, {"measurement": "Cmax plasma - N-desethyl Sunitinib concentration", "setting": "[3]; sunitinib 600 mg O2W", "value": "45 ng/mL and 41 ng/mL"}, {"measurement": "Cmax plasma - N-desethyl Sunitinib concentration", "setting": "[3]; sunitinib 700 mg O2W", "value": "26 ng/mL and 52 ng/mL and 24 ng/mL and 65 ng/mL and 55 ng/mL and 51 ng/mL and 21 ng/mL and 30 ng/mL and 40 ng/mL and 59 ng/mL and 35 ng/mL and 48 ng/mL and 36 ng/mL and 34 ng/mL and 23 ng/mL and 84 ng/mL and 164 ng/mL and 150 ng/mL and 85 ng/mL and 68 ng/mL and 54 ng/mL and 76 ng/mL and 125 ng/mL and 128 ng/mL and 200 ng/mL and 57 ng/mL"}, {"measurement": "Cmax plasma - N-desethyl Sunitinib concentration", "setting": "[3]; sunitinib 800 mg O2W", "value": "55 ng/mL and 84 ng/mL and 13 ng/mL and 14 ng/mL and 29 ng/mL"}]}
